The values below come from article PMC3792974, “Novel Inhibitor Cystine Knot Peptides from Momordica charantia” (PLoS ONE, 2013).

Entries after “also recorded” stand apart in the source; their conditions may differ. No end group written: not given here.

The test system of series [1] is bovine pancreatic trypsin. Nature of the series: Trypsin inhibitory assay. Type of series: biochemical. The conditions noted are these: substrate L-BAPNA, 50 mM Tris/20 mM CaCl2 pH 8.2, 10 min, room temperature; four concentrations, initial 750 µM or 1.5 mM with 10-fold dilutions; triplicate; absorbance 410 nm; positive control MCoTI-II. Here is the method:
A stock solution of bovine pancreatic trypsin at 4.5 mg/mL in 1 mM HCl was prepared and stored on ice. Firstly, the trypsin stock was diluted to 0.45 mg/mL in 50 mM Tris/20 mM CaCl2 (pH 8.2) buffer. Next, the substrate was prepared by dissolving 0.435 mg/mL L-BAPNA (Nα-benzoyl-L-arginine 4-nitroanilide hydrochloride, Sigma-Aldrich) in 1% DMSO/99% 50 mM Tris/20 mM CaCl2 buffer (pH 8.2). Four different peptide concentrations were tested starting from initial concentrations of 750 µM or 1.5 mM with 10-fold dilutions. The reaction mixture was prepared by dispensing 15 µL of 50 mM Tris/20 mM CaCl2 (pH 8.2) buffer, 5 µL of 0.45 mg/mL trypsin and followed by 5 µL of the tested peptide into each well of a 96-well plate in triplicate. A control without the tested peptide was used to measure 100% trypsin activity. Subsequently, 125 µL of 0.435 mg/mL substrate was added to the plate and incubated for 10 min at room temperature. The reaction was stopped by adding 25 µL of 30% acetic acid. Absorbance was measured at 410 nm using a Powerwave XS plate reader (Bio-Tek). Trypsin inhibition was calculated from the absorbance in the presence of the tested peptide as a percent of absorbance of the uninhibited trypsin [39]. MCoTI-II was used as the positive control.

Series [2] has as its system Plasmodium falciparum (FCR-3 strain). Nature of the series: Antimalarial assay. Type of series: cell-based. As to conditions: FCR-3 strain in human RBCs (type A), 5% hematocrit, 0.3% parasitemia, GIT medium, 37°C, 72 h; various concentrations, duplicate; Giemsa smears, microscopy; positive control artemisinin. Here is the method:
Plasmodium falciparum (FCR-3 strain) was maintained in vitro at 37°C in GIT medium containing human red blood cells (RBCs, type A) at 5% hematocrit in 24-well plates which were put in a CO2 incubator (5% CO2, 5% O2 and 90% N2) at 37°C [41]. Peptides were added in duplicate in distilled water or 0.25 M phosphoric acid and prepared in various concentrations. 10 µL of this solution was added to individual cells of the plates. Erythrocytes with 0.3% parasitemia were added to the cells of the above plates containing 990 µL of culture medium. The plates were incubated at 37°C for 72 h in the CO2 incubator. To test the antimalarial activity of peptides, thin smears were prepared from each culture and stained with Giemsa. Erythrocytes were examined under microscopy. Artemisinin was used as the positive control. Drug-free control cultures were assayed simultaneously, [43].

The next series relates to MDA-MB-231. Nature of the series: Cytotoxicity MTT assay, MDA-MB-231. The format is cell-based. As to conditions: MDA-MB-231 human breast cancer cells; 0.1 µM to 100 µM, duplicate, 5 h, 37°C; MTT 1 h, absorbance 600 nm; positive control Taxol. Here is the method:
(§1) The cytotoxicity of the peptides on breast cancer cells (MDA-MB-231) and non-cancerous human cells (HFF-1) was measured using a standard MTT (3-(4,5-dimethylthiazol-2-yl)-2,5-diphenyltetrazolium bromide, Sigma-Aldrich) assay. Cells were seeded in a 96-well flat-bottomed plate at a concentration of 5.0×10^4 cells/cm^2 in DMEM in 10% FBS, or DMEM in 15% FBS, and incubated at 37°C in an atmosphere of 5% CO2 in air. After 24 h, peptides were added in duplicate at the concentrations ranging from 0.1 µM to 100 µM to make up a final volume of 100 µL in each well and then incubated for 5 h. MTT solution (10 µL) in PBS (5 mg/mL) was added to each well and maintained for 1 h. Media was removed, and formazan crystals were resuspended in 100 µL of DMSO. Absorbance was then read at 600 nm. Taxol was used as the positive control.
For orientation: Formazan colour is commonly taken as a measure of viable cells.

The subject of the next series is HFF-1. The series is described as follows: Cytotoxicity MTT assay, HFF-1. The format is cell-based. As to conditions: HFF-1 non-cancerous human cells; 0.1 µM to 100 µM, duplicate, 5 h, 37°C; MTT 1 h, absorbance 600 nm; positive control Taxol. On the procedure: as §1

As to “GCAGKACNLLGLTCDAGCFCRPDGVGIVAGVCV (disulfide (positions not given here)) [MCh-2, PDB 2M2R]”, the trypsin inhibitory activity entry in series [1] is reported as “not active; also recorded: not trypsin inhibitors”. The antimalarial activity result in series [2] is given as “not active”. Also, the cytotoxic activity entry in the series on MDA-MB-231 and with HFF-1 was “not active” in each case.
“GCAGKSCNILGSDPCDAGCFCLPVGIVAGVCV (disulfide (positions not given here)) [MCh-1, PDB 2M2Q]”: the trypsin inhibitory activity entry in series [1] is reported as “not active; also recorded: not trypsin inhibitors”. Further, in series [2], the antimalarial activity result is reported as “not active”. Moreover, the cytotoxic activity entry in the series on MDA-MB-231 and in the series on HFF-1 was “not active” each time.
